According to US20060063210A1, “Histone deacetylase whole cell enzyme assay” (Methylgene, Inc., priority 2004, published 2006):

Columns and labels:
[1] = target: T1, recombinant Sirt1 (Homo sapiens, UniProt Q96EB6); experiment: recombinant Sirt1 enzyme assay in vitro (Fluor-de-Lys-SirT1 substrate); assay type: biochemical; settings: for inhibition of recombinant Sirt1 in vitro: TSA up to 10 uM
T1 construct: purchased Biomol
T1 sequence (Q96EB6 1-747): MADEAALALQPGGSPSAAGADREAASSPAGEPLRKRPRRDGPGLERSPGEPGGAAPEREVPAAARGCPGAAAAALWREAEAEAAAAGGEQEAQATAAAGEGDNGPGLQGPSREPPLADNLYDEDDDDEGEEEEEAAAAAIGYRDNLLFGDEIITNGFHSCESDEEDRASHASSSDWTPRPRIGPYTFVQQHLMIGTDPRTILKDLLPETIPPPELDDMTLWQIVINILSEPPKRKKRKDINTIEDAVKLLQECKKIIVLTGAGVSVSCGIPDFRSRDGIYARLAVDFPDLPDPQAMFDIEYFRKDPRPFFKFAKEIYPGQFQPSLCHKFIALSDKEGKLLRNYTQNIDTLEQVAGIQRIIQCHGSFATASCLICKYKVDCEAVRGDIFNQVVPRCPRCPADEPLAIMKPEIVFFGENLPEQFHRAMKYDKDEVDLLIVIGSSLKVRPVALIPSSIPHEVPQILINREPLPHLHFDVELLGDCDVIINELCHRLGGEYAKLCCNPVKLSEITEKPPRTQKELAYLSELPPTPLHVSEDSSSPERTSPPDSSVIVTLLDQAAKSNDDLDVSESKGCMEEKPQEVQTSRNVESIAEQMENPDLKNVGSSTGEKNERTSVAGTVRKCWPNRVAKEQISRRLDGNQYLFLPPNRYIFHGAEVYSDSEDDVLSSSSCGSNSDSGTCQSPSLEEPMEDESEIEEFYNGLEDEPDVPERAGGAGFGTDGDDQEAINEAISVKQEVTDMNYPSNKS
Description: (§1) Human SirT1, 2, 3 recombinant enzymes were purchased from Biomol (Biomol, Plymouth Meeting, Philadelphia).
(§2) Reaction is read as described in Example 3.

[2] = target: T2, recombinant Sirt2 (Homo sapiens, UniProt Q8IXJ6); experiment: recombinant Sirt2 enzyme assay in vitro (Fluor-de-Lys-SirT2 substrate); assay type: biochemical; settings: for inhibition of recombinant Sirt2 in vitro: TSA up to 10 uM; for IC50: 45 minutes, read-out: IC50 against recombinant Sirt2
T2 construct: purchased Biomol
T2 sequence (Q8IXJ6 1-389): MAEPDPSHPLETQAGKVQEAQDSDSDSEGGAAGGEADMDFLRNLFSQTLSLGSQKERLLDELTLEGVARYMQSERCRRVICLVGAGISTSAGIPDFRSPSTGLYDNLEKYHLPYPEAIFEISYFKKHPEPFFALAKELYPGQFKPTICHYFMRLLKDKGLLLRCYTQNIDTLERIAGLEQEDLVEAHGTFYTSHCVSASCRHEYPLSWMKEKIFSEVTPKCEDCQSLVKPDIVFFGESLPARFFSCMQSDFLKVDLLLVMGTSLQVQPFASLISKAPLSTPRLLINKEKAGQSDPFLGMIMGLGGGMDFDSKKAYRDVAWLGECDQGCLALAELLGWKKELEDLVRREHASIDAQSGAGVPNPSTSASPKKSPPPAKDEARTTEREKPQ
Description: as §1, §2

[3] = target: T3, recombinant Sirt3 (Homo sapiens, UniProt Q9NTG7); experiment: recombinant Sirt3 enzyme assay in vitro (Fluor-de-Lys-SirT2 substrate); assay type: biochemical
T3 construct: purchased Biomol
T3 sequence (Q9NTG7 1-399): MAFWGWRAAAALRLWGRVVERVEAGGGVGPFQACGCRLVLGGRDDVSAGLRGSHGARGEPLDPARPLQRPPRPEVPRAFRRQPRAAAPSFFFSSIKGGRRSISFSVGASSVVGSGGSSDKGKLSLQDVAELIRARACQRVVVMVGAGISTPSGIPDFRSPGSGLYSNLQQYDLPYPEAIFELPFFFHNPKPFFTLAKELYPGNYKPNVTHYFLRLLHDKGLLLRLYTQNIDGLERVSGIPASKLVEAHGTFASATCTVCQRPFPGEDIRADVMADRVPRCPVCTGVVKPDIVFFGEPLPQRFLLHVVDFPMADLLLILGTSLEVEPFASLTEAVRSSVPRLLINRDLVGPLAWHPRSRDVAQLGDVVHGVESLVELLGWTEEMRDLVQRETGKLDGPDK
Description: as §1, §2

[4] = target: T4, SirT1 (HCT116 cells) (Homo sapiens, UniProt Q96EB6); experiment: whole cell sirtuin (SirT1) activity in HCT116 cells with Fluor-de-Lys-SirT1 substrate; assay type: cell-based; settings: for inhibition of whole cell SirT1 activity: 1.5 hours pre-incubation, Fluor-de-Lys-SirT1 500 uM
T4 construct: endogenous in cells; host or cells: HCT116
T4 sequence (Q96EB6 1-747): T1 sequence (Q96EB6 1-747)
Description: Cultured cells (HCT116) were trypsinized and counted by trypan blue exclusion. Live cells (2×10^5) were distributed to each well of the 96-well plate. […] Independently, we fixed concentrations of either Fluor-de-Lys-SirT1 substrate or Fluor-de-Lys-SirT2 in whole cells and analyzed the effect of exogeneous NAD+ concentration on whole cell sirtuin activity (FIG. 7b). […] Therefore the reading was done immediately after stopping.
Cultured HCT116 cells were counted and distributed to each well of the 96-well plate. […] After addition of Sirtuin substrate (Fluor-de-Lys-SirT1, 500 uM) or HDAC substrate Boc-Lys(Ac)-AMC (300 uM), the cells are further incubated for an additional 2 hours. Reaction was stopped and read as described in Examples 3 and 6. […] This observation is consistent with our finding in Example 7 that TSA can not inhibit class III (Sirtuins) in vitro.

[5] = tested on: HDAC (293T cells); experiment: whole cell deacetylase (HDAC) assay in 293T cells with Boc-Lys(Ac)-AMC; assay type: cell-based, human; settings: for IC50: pre-incubated with inhibitors 16 hours, mean of at least 2 experiments
Experimental: (§3) Freshly trypsinized cells were dispensed into 96-well black Costar E1A/RIA plates (Corning Inc., Corning, N.Y.). Small molecule substrate Boc-Lys(Ac)-AMC (Bachem Biosciences Inc., King of Prussia, Philadelphia) was added to cell suspension with the final concentration of 300 uM. Cells were placed in 37° C. incubator with 5% CO2 for 90 minutes. Reaction was stopped by adding a freshly prepared Flouor-de-Lys™ deleveloper (Biomol, Plymouth Meeting, Philadelphia) with 1 uM TSA (Biomol) in assay buffer (25 mM Tris, HCl pH8.0, 137 mM NaCl, 2.7 mM KCl, 1 mM MgCl2) plus 1% NP-40. With the presence of 1% NP-40, both excellular and intracellular HDAC activity was measured in cultured cells altogether.
(§4) HDAC enzyme assay in intact cells was carried out as described in Example 3.

[6] = tested on: HDAC (HCT116 cells); experiment: whole cell deacetylase (HDAC) assay in HCT116 cells with Boc-Lys(Ac)-AMC; assay type: cell-based, human; settings: for IC50: pre-incubated with inhibitors 16 hours, mean of at least 2 experiments
Experimental: as §3, §4
Cultured HCT116 cells were counted and distributed to each well of the 96-well plate. […] After addition of Sirtuin substrate (Fluor-de-Lys-SirT1, 500 uM) or HDAC substrate Boc-Lys(Ac)-AMC (300 uM), the cells are further incubated for an additional 2 hours. Reaction was stopped and read as described in Examples 3 and 6.

[7] = target: T5, SirT1 (mouse white blood cells) (Mus musculus, UniProt Q923E4); experiment: ex vivo whole cell Sirt1 activity in mouse white blood cells; assay type: cell-based; settings: 90 minute incubation, 200 uM Fluor-de-Lys Sirt1
T5 construct: from tissue; host or cells: mouse white blood cells
T5 sequence (Q923E4 1-737): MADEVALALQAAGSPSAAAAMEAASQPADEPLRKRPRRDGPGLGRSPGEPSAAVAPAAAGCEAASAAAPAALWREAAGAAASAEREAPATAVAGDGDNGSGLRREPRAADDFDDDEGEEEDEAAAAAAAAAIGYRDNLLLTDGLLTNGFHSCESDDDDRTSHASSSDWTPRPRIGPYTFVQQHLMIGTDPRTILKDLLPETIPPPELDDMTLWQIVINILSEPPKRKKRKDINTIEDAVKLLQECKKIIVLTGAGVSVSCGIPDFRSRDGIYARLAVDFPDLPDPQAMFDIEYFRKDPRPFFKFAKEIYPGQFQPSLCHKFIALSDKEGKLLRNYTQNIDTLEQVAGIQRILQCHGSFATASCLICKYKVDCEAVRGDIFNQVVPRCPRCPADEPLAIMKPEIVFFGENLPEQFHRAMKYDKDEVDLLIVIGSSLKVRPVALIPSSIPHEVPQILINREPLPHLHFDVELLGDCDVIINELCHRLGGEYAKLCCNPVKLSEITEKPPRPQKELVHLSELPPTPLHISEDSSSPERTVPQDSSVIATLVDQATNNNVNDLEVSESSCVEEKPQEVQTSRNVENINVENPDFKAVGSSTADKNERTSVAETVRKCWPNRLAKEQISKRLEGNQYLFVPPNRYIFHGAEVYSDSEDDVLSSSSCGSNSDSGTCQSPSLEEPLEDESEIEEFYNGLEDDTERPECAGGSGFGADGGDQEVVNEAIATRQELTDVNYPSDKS
Experimental: Mouse blood was collected in heparin tubes. Erythrocytes were lysed with five volumes of Erythrocyte Lysis buffer (EL, Qiagen Canada Inc, Mississauga, Ontario). White blood cells were recovered by centrifugation (400×g for 5 min), washed and resuspended in RPMI (+10% FBS), then counted. […] After 90 minute incubation, reaction was stopped with one volume of assay buffer (50 mM Tris-Ci pH 8.0, 137 mM NaCl, 2.7 mM KCl, 1 mM MgCl2) supplemented with 1× Developer II (BioMol, Plymouth Meeting, Philadelphia) and 1% NP40.

[8] = tested on: HDAC (A549 cells); experiment: whole cell deacetylase (HDAC) assay in A549 cells with Boc-Lys(Ac)-AMC; assay type: cell-based, human; settings: pre-incubated with inhibitors 16 hours, mean of at least 2 experiments
Experimental: as §3, §4

[9] = tested on: HDAC (Du145 cells); experiment: whole cell deacetylase (HDAC) assay in Du145 cells with Boc-Lys(Ac)-AMC; assay type: cell-based, human; settings: pre-incubated with inhibitors 16 hours, mean of at least 2 experiments
Experimental: as §3, §4

[10] = tested on: HDAC (Jurkat T cells); experiment: whole cell deacetylase (HDAC) assay in Jurkat T cells with Boc-Lys(Ac)-AMC; assay type: cell-based, human; settings: pre-incubated with inhibitors 16 hours, mean of at least 2 experiments
Experimental: as §3, §4

[11] = tested on: HDAC (human white blood cells); experiment: ex vivo inhibition of whole cell HDAC activity in human white blood cells; assay type: cell-based; settings: 16 hours incubation
Experimental: Whole blood (human or mouse) was centrifuged at 2500 rpm for 10 minutes at ambient temperature in a Sorvall RT-7 centrifuge (Mandel Scientific Co., Guelph, Ontario). Plasma was removed and buffy coat was collected. Five volumes of Erythrocyte Lysis Buffer (EL) (Qiagen Canada Inc., Mississauga, Ontario) were added to buffy coat. Buffy coat was incubated on ice for 20 minutes before it was centrifuged at 400 g for 10 minutes at 4° C. Supernatant was removed and buffy coat was washed twice with EL buffer and re-centrifugation. Buffy coat was resuspended in RPMI media and cells (white blood cells) were counted with trypan blue exclusion.

[12] = tested on: HDAC (Panc-1 cells); experiment: whole cell deacetylase (HDAC) assay in Panc-1 cells with Boc-Lys(Ac)-AMC; assay type: cell-based, human; settings: pre-incubated with inhibitors 16 hours, mean of at least 2 experiments
Experimental: as §3, §4

Oc1ccc(C=Cc2cc(O)cc(O)c2)cc1 [Resveratrol]
activation of recombinant Sirt1 in vitro [1]: can activate Sirt1 enzymes in vitro in a dose dependent manner
EC50 ([2]; substrate FldSirt2, activation, read-out: EC50 to activate recombinant Sirt2 in vitro): 912 µM
EC50 ([3]; substrate FldSirt2, activation, read-out: EC50 to activate recombinant Sirt3 in vitro): > 2000 µM
activation of whole cell sirtuin (SirT1) activity ([4]; HCT116 cells, 1.5 hour pre-incubation): could activate whole cell sirtuin (SirT1) activity in a dose-dependent manner

NC(=O)c1cccnc1 [nicotinamide]
quenching of the whole cell sirtuin reaction ([4]; HCT116 whole cells): ineffective at quenching the reaction

NC(=O)c1ccc[n+]([C@@H]2O[C@H](COP(=O)([O-])OP(=O)(O)OC[C@H]3O[C@@H](n4cnc5c(N)ncnc54)[C@H](O)[C@@H]3O)[C@@H](O)[C@H]2O)c1 [NAD+]
effect of exogenous NAD+ on whole cell sirtuin activity ([4]; HCT116 cells, fixed Fluor-de-Lys-SirT1 or Fluor-de-Lys-SirT2 substrate): no effect on whole cell sirtuin activity

CC(=O)O[C@H]1C(=O)[C@@]2(C)[C@H]([C@H](OC(=O)c3ccccc3)[C@]3(O)C[C@H](OC(=O)[C@H](O)[C@@H](NC(=O)c4ccccc4)c4ccccc4)C(C)=C1C3(C)C)[C@]1(OC(C)=O)CO[C@@H]1C[C@@H]2O [taxol]
effect on HDAC activity in whole cells [5]: no effect on HDAC activity
IC50 [5]: > 50 µM

CC(/C=C/C(=O)NO)=C\[C@@H](C)C(=O)c1ccc(N(C)C)cc1 [TSA, trichostatin A]
inhibition of whole cell HDAC activity ([6]; Boc-Lys(Ac)-AMC 300 uM): could inhibit whole cell HDAC activity
inhibition of recombinant Sirt1 in vitro [1]: does not inhibit
IC50 ([1]; substrate FldSirt1, 45 minutes, read-out: IC50 against recombinant Sirt1): > 10 µM
inhibition of recombinant Sirt2 in vitro [2]: does not inhibit
IC50 ([2]; substrate FldSirt2): > 10 µM
inhibition of whole cell SirT1 activity ([4]; HCT116 cells): not

Cc1ccc(C(=O)Nc2ccc(S(=O)(=O)O)c3cc(S(=O)(=O)O)cc(S(=O)(=O)O)c23)cc1NC(=O)c1cccc(NC(=O)Nc2cccc(C(=O)Nc3cc(C(=O)Nc4ccc(S(=O)(=O)O)c5cc(S(=O)(=O)O)cc(S(=O)(=O)O)c45)ccc3C)c2)c1 [suramin]
inhibition of recombinant Sirt1 in vitro [1]: inhibits
inhibition of recombinant Sirt2 in vitro [2]: inhibits
IC50 ([2]; substrate FldSirt2): 14 µM
inhibition of recombinant SirT3 in vitro [3]: inhibits
IC50 ([3]; substrate FldSirt2, 45 minutes, read-out: IC50 against recombinant Sirt3): 575 µM
inhibition of whole cell SirT1 activity ([4]; HCT116 cells): inihibits whole cell SirT1 activity in a dose-dependent manner
inhibition of SirT1 in whole mouse white blood cells [7]: inhibits SirT1 enzymes in whole white blood cells

O=C(/C=C/c1ccc(CN(CCO)CCc2c[nH]c3ccccc23)cc1)NO [LAQ-824]
IC50 [8]: 0.02 µM
IC50 [9]: 0.05 µM
IC50 [6]: 0.06 µM
IC50 [5]: 0.04 µM
IC50 [10]: 0.04 µM
inhibition of whole cell HDAC activity in human white blood cells [11]: dose-dependent inhibition

Nc1ccccc1NC(=O)c1ccc(CNC(=O)OCc2cccnc2)cc1 [MS-275]
IC50 [8]: 0.4 µM
IC50 [9]: 0.3 µM
IC50 [6]: 3 µM
IC50 [5]: 2 µM
IC50 [10]: 0.3 µM
IC50 [12]: 0.5 µM
